Results taken from patent US12390467B2, “Necroptosis inducers or autophagy inhibitors or a combination thereof” (The University of Toledo, priority 2018, dated 2025).
Read-outs that look alike come from different tables or passages of the source.

Tests used:
Type in all cases: cell-based
[1] = test system: ZR-75-1 (non-TNBC cell line); test: MTT cell viability assay, ZR-75-1; settings: read-out: IC50 ± SD, ZR-75-1
Method: The following cancer and non-cancer cell lines were used in the initial cytotoxicity screening of the TPH104 compounds: triple negative breast cancer (TNBC): MDA-MB468, MDA-MB 231, and BT-20; non-TNBC: MCF-7 and ZR-75-1; ovarian: Ov2008; prostate: DU145; colon: HCT-116, S1, and LOVO; lung: H460; normal kidney: HEK-293; normal breast: HMEC; and normal colon: CRL-1459. All cells were cultured in Dulbecco's modified Eagle medium (DMEM), supplemented with 10% fetal bovine serum (FBS), and 1% penicillin/streptomycin (P/S). Cells were allowed to grow as adherent monolayers in T25 flasks in a humidified incubator with 5% CO2 at 37° C. for a period of 24 h, unless otherwise specified for certain experiments.
The MTT assay was used to determine the cytotoxicity of all of the compounds. Briefly, in a 96-well flat-bottom cell culture plate, the cells were seeded at a density between 3-5×10^3 cells/well (180 μl in each well) and incubated for 24 h (a hemocytometer was used for cell counting). The next day, the cells were incubated with different concentrations of the nine compounds (0, 0.1, 0.3, 1, 3, 10, 30, and 100 μM) for 72 h. After 72 h, 20 μl of 5 mg/ml of 3-(4,5-dimethylthiazol-2-yl)-2,5-diphenyltetrazolium bromide (MTT) was added to the plate and incubated with the cells for 3 h at 37° C. In this experiment, the living cells will reduce the soluble MTT dye to non-soluble purple formazan crystals. Following incubation, the media containing MTT removed via suction and 100 μL of 100% dimethyl sulfoxide (DMSO) was added to dissolve the formazan crystals. Subsequently, the plate was shaken for 2 minutes and the absorbance was measured at a wavelength of 570 nm using a SpectraMax iD3 Multi-Mode Microplate Reader (Molecular Devices, Sunnyvale, CA). The IC50 values of each compound were calculated and used to determine the selectivity ratio (IC50 in normal cells/IC50 in cancer cells) of each compound as previously described. Based on the results obtained from these experiments, the compound TPH104, which had the lowest IC50 value, was selected for further experiments.

[2] = test system: BT-20 and MDA-MB468 cells; test: Mitochondrial membrane potential assay (MitoTracker Red / Alexa Fluor 488 annexin V); settings: 0.5, 1, and 2 μM
Method: This assay is a direct measure of the structural integrity of mitochondria. Cells were seeded as indicated in the cell cycle assay and incubated for 24 h at 37° C. The next day, TPH104 (0.5, 1, 2 μM) or vehicle and incubated with the cells for 12 h. The cells were harvested, washed 2× with PBS, counted, and their concentrations were adjusted to 5×10^6 cells/well in the culture medium. Subsequently, 4 μl of the 10 μM solution of mitotracker red was added to each 1 ml aliquot of cells and incubated with the cells for 30 minutes at 37° C. The cells were washed 2× with PBS and re-suspended in the 100 μl of 1× annexin-binding buffer. The cells were stained with Alexa Fluor for 15 minutes and analyzed using flow cytometry as described in the manufacturer protocol (Thermofisher, USA).

MDA-MB468 cells = test: Nuclear condensation and morphology, MDA-MB468
Method: (§1) To detect DNA fragmentation following apoptotic cell death, the Hoechst 33258 assay was performed. Briefly, TNBC cells were seeded in a 6-well plate at a density of 10,000 cells/well over 18-mm cover slips and incubated for 24 h. Following incubation, TPH104 (1, 2, or 5 μM), or vehicle were added for an additional 12 h. Subsequently, Hoechst 33258 (Sigma Aldrich, USA) was added to the cells at a concentration of 0.5 mg/mL and incubated for 30 minutes at 37° C. The cells were then washed 3× with phosphate buffered saline (PBS). Subsequently, the cover slips were mounted on a microscope glass/slide and allowed to dry for at least 2 h. Stained cells from each cover slip were captured from randomly selected fields under a fluorescent microscope (EVOS-FLC cell imaging system, Thermofisher scientific) to qualitatively determine the proportion of viable and apoptotic cells based on their relative fluorescence and nuclear fragmentation as previously described.

[3] = test system: RIP, p-RIP, MLKL, caspase 8 in MDA-MB468 cells; test: Western blot, necroptotic proteins, MDA-MB468
Method: The TNBC cells were seeded in a culture flask and incubated for 24 h. The cells were then incubated with different concentrations of the lead compounds and re-incubated for an additional 12 or 24 h. […] The bicinchoninic acid (BCA) was used to determine protein concentration in the cell extracts (G-BIOSCIENCES, St. Louis, MO, USA). […] The membrane was blocked using 5% milk in Tris-buffered Tween 20 saline for 30 minutes. The membrane was then incubated overnight with primary antibodies against Bak, Bax, Bcl-2, caspase9, caspase 3, caspase 7, PARP, cytochrome c, N-cadherin, E-cadherin, c-Myc, dishevelled segment polarity protein 3 (DVL3), dishevelled segment polarity protein 2 (DVL2), Vimentin, mitogen-activated protein kinase kinase (MAPKK also known as MEK1/2), β-catenin, low-density lipoprotein receptor-related protein 6 (LRP6), receptor-interacting protein kinase (RIP), phosphorylated RIP (p-RIP), mixed lineage kinase domain like pseudokinase(MLKL), Caspase 8, light chain 3 (LC3), lysosomal-associated membrane protein 1 (LAMP1), unc-51 like autophagy activating kinase 1 (ULK1), ras associated protein 7 (Rab7), ras associated protein 5 (Rab5), Beclin 1, mechanistic target of rapamycin (mTOR), tumor necrosis factor alpha (TNF-α), tumor necrosis factor receptor 1 (TNFR1), tumor necrosis factor receptor 2 (TNFR2), Fas-associated protein with death domain (FADD), Fas ligand (Fas), TNF-related apoptosis-inducing ligand (TRAIL), death receptor 5 (DR5), Tumor necrosis factor receptor type 1-associated DEATH domain (TRADD), receptor-interacting protein kinase 3 (RIP3), β-actin or GAPDH in 1:1000 dilution in 5% milk or 5% BSA at 4° C. Horseradish peroxidase-labeled (HRP) anti-rabbit or anti-mouse secondary antibodies (1:5,000 dilution) were added and incubated the next day for an additional 1 h. A ChemiDoc™ MP System imaging system from Bio-Rad (Hercules, CA, USA) was used for blots reading. Blots were used to obtain the protein bands, followed by quantification of the bands using image J software (NIH, Bethesda, MD, USA). All of the data were expressed as the ratio of β-actin or GAPDH.

BT-20 cells = test: Hoechst 33258 assay and live cell morphology, BT-20
Method: FIGS. 8A-8B: Representative images of morphological changes in BT-20 TNBC cells incubated with 0, 1, or 3 μM of TPH104 (FIG. 8A). The images were taken using an incuCyte live cell imaging instrument.
as §1

COc1ccc(O)c(/C=N/Nc2ncnc3scc(-c4ccc(C)cc4)c23)c1 [TPH104] was tested, and the IC50 ([1]; 72 h) was 8.56 ± 1.95 µM, the IC50 ([1]; Homo sapiens, ZR-75-1, 72 h) was 8.6 µM and the mitochondrial membrane potential [2] was “did not significantly alter”. The “number of cells in the second quadrant (Q2), apoptotic cells” value ([2]; flow cytometry) was “did not significantly alter”, the “nuclear condensation or cellular shrinkage” value (MDA-MB468 cells) was “did not produce” and the “expression of caspase 8” value ([3]; 0.5, 1, 2, and 5 μM) was “significantly decreased”. The “expression levels of MLKL” value ([3]; 1, 2, and 5 μM) was “significantly increased”, the “expression of p-RIP” value ([3]; 1, 2, and 5 μM) was “significantly increased” and the “expression of RIP1” value ([3]; 1, 2, or 5 μM for 12 h) was “significantly increased”. The cellular shrinkage (BT-20 cells; 1 μM and 3 μM) was “did not induce cellular shrinkage”, the “rupture of the cellular membrane” value (BT-20 cells; 1 μM and 3 μM) was “did induce rupture” and the nuclear condensation (BT-20 cells; 1, 2, and 5 μM, 12 h) was “did not show nuclear condensation”.
